Test results from patent US9586905B2, “Benzoazepine derivative and medical use thereof” (SANWA KAGAKU KENKYUSHO CO., LTD., priority 2012, dated 2017).
pEC50, pIC50: −log10 of the molar value.

Legend:
human V2 receptor = biological target: T1, human V2 receptor (Homo sapiens, UniProt P30518); test: cAMP production test in V2 receptor expression cell; assay type: cell-based; conditions: for pEC50: human V2 receptor expression cell, 30 minutes at room temperature, HTRF cAMP kit; for Emax: maximum reaction by 8-AVP assumed to be 100%
T1 construct: A DNA fragment containing a human V2 receptor code region; expressed in transfected cells
T1 sequence (P30518 whole entry, the tested form may be a part): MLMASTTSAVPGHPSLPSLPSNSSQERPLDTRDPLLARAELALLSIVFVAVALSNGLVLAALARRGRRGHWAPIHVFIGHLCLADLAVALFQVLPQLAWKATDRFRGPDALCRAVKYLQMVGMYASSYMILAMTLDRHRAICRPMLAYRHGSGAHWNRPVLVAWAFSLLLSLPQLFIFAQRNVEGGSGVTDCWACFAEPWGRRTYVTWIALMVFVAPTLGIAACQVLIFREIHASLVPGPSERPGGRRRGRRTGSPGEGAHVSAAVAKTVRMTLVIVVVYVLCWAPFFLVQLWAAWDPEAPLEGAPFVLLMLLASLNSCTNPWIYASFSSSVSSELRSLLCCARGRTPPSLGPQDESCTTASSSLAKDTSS
Procedure: Pharmacological Test (1) Preparation of Human V2 Receptor Expression Cell
A DNA fragment containing a human V2 receptor code region was inserted into an expression vector of a vertebrate cell. The expression vector was genetically introduced into an animal cell to have the human V2 receptor express in the surface of the cell. Since the expression vector could express a neo gene which functions as a G418 resistance marker, it was cultured in a G418-containing medium, thereby selectively obtaining a human V2 receptor stable expression cell.
(2) cAMP Production Test in V2 Receptor Expression Cell
The human V2 receptor expression cell, which was prepared in the above described method, was recovered and resuspended into an incubation buffer (F-12 medium, 20 mM HEPES), and 5 μl of the cell was then divided into a 384-well plate with a density of 15,000 cells/well. 5 μl of a compound solution or an 8-AVP ((Arg^8)-vasopressin) solution, which was diluted with an assay buffer (F-12 medium, 20 mM HEPES, 1 mM IBMX), (total 10 μl/well) was added to each well (final concentration: 15,000 cells/well, 500 μM IBMX, 1% dimethyl sulfoxide). After incubation at room temperature for 30 minutes, a cAMP production amount was measured using a commercially available HTRF cAMP kit (Cisbio Inc.) according to the described protocol. Excel Fit was used in order to find EC50 and Emax values of the test compound.

Rat PK test = assay type: in vivo; conditions: iv, male Sprague-Dawley rat, caudal vein administration, 0.5 mg/kg, plasma; for Vd: CLp multiplied by MRT, read-out: Vdss; for clearance: administration amount divided by AUC0-∞, read-out: CLp (converted)
Procedure: A male Sprague-Dawely (Crj: CD(SD)IGS: CHARLES RIVER LABORATORIES JAPAN, INC.) rat was used between 7 to 8 weeks of age as an experimental animal. A rat fasted for one night was used. A test compound was dissolved into DMSO, thereto were added PEG and physical saline to adjust a concentration to be 0.5 mg/mL (20/20/60, v/v/v), and the solution was administered to the caudal vein in a use amount of 0.5 mg/kg. A blood sample was taken with a syringe treated with heparin from the jugular vein with time from 6 to 8 hours after administration and the taken blood was centrifuged to obtain plasma. A plasma drug concentration was measured using LC/MS/MS. For the sample for the LC/MS/MS measurement, a supernatant obtained by adding an internal standard substance and acetonitrile to the plasma and then deproteinization was used. A PK parameter was analyzed by a non-compartment model. A clearance (CLp) was calculated by dividing an administration amount by AUC0-∞. A distribution volume (Vdss) was calculated by multiplying CLp by a mean retention time (MRT).

CYP3A4 = biological target: T2, CYP3A4 (Homo sapiens, UniProt P08684); test: Test of inhibition of cytochrome P450 (3A4) enzyme; assay type: in vitro ADME; conditions: human liver microsome, midazolam 2.5 μM as substrate, test compound 0.21 to 50 μM, 37° C. 10 minutes
T2 construct: human liver microsome with a protein concentration of 0.1 mg protein/mL; from tissue; host or cells: human liver microsomes
T2 sequence (P08684 whole entry): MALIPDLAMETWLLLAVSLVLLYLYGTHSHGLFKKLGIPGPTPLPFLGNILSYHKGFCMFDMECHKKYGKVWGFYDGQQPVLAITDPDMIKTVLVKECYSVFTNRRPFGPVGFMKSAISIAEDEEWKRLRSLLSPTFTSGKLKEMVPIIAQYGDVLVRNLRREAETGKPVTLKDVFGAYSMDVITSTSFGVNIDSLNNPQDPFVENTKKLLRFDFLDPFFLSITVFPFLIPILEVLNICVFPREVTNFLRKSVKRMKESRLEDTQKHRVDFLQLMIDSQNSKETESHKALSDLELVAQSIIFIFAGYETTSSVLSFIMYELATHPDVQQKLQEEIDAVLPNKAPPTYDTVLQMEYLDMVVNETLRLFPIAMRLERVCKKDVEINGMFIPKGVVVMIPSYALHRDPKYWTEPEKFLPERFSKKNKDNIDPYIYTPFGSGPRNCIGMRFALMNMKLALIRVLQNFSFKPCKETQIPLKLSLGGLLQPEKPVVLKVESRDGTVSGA
Procedure: (4) Test of Inhibition of Cytochrome P450 (3A4) Enzyme
(§1) Using a 96 well plate, midazolam (2.5 μM) as a substrate, a test compound (0.21 to 50 μM), human liver microsome with a protein concentration of 0.1 mg protein/mL were added to a 0.1 M phosphoric acid buffer solution (pH=7.4), which contains 1.55 mM NADP^+, 3.3 mM glucose-6-phosphate, 3.3 mM MgCl2 and 0.4 Units/ml of glucose-6-phosphate dehydrogenase to form a reaction solution having a total amount of 500 μl. The reaction solution was incubated at 37° C. for 10 minutes and 4-hold amount of cold acetonitrile was added thereto to terminate the reaction. Then, the reaction solution was centrifuged (5000 g×10 minutes×4° C.), and the supernatant was collected to measure a production amount of a metabolized product by LC/MS/MS.

CYP2C9 = biological target: T3, CYP2C9 (Homo sapiens, UniProt P11712); test: Test of inhibition of cytochrome P450 (2C9) enzyme; assay type: in vitro ADME; conditions: human liver microsome, sulfaphenazole 10 μM, test compound 0.21 to 50 μM, 37° C. 10 minutes
T3 construct: human liver microsome with a protein concentration of 0.1 mg protein/mL; from tissue; host or cells: human liver microsomes
T3 sequence (P11712 whole entry): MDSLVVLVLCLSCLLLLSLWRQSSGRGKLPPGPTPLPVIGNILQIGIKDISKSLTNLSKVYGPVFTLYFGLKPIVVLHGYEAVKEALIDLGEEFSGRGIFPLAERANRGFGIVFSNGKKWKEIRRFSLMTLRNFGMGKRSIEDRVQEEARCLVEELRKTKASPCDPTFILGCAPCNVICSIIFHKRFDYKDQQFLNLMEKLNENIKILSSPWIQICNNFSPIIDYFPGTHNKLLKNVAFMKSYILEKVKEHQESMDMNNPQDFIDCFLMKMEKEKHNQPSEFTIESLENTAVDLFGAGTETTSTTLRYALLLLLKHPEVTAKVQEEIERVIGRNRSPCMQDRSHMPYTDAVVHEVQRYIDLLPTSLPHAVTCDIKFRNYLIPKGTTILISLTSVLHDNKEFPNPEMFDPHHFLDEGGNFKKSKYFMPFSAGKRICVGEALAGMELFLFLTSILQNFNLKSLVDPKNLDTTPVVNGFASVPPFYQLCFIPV
Procedure: (5) Test of Inhibition of Cytochrome P450 (2C9) Enzyme
as §1, with “sulfaphenazole (10” for “midazolam (2.5”, “[…].” for “500 μl.”

| pEC50 (human V2 receptor) | Emax (human V2 receptor) | AUC (Rat PK test) | Vd (Rat PK test) | clearance (Rat PK test) | pIC50 (CYP3A4) | pIC50 (CYP2C9) | SMILES |
| --- | --- | --- | --- | --- | --- | --- | --- |
| 8.68 | 101% | 430 ng·h/mL | 0.96 L/kg | 19.3 mL/min/kg | < 4.30 | 4.33 | Cc1ccn(-c2ccc(C(=O)N3CCC(C)(C(=O)NC(C)CO)Cc4ccccc43)c(Cl)c2)n1 (single isomer, unassigned) [Example 72] |
| – | – | 176 ng·h/mL | 4.72 L/kg | 47.8 mL/min/kg | – | – | C[C@@H]1CN(C(=O)c2ccc(-n3cccn3)cc2Cl)c2ccccc2CN1C(=O)NCCO [comparative compound 1, N-(2-hydroxyethyl)-(R)-1-(2-chloro-4-pyrazol-1-ylbenzoyl)-3-methyl-1,2,3,5-tetrahydro-benzo[e]-1,4-diazepine-4-carboxamide, reference compound] |

The remaining lines, values behind:

| SMILES | pEC50 (human V2 receptor) | Emax (human V2 receptor) | AUC (Rat PK test) | Vd (Rat PK test) | clearance (Rat PK test) | pIC50 (CYP3A4) | pIC50 (CYP2C9) |
| --- | --- | --- | --- | --- | --- | --- | --- |
| Cc1ccn(-c2ccc(C(=O)N3CCC(C)(C(=O)NC(C)CO)Cc4ccccc43)c(C(F)(F)F)c2)n1 (single isomer, unassigned) [Example 89] | 8.85 | 102% | 371 ng·h/mL | 1.23 L/kg | 22.5 mL/min/kg | < 4.30 | 4.40 |
| CC(NC(=O)C1(C)CCN(C(=O)c2ccc(N3CCCC3)cc2C(F)(F)F)c2ccccc2C1)C(N)=O (single isomer, unassigned) [Example 90] | 9.41 | 101% | 613 ng·h/mL | 1.08 L/kg | 13.6 mL/min/kg | – | – |
| CC(C)NC(=O)C[C@H]1CCCN(C(=O)c2ccc(N3CCCC3)cc2Cl)c2ccccc21 [comparative compound 2, 2-[(5R)-1-(2-chloro-4-pyrrolidine-1-ylbenzoyl)-2,3,4,5-tetrahydrobenzoazepine-5-yl]-N-isopropylacetoamide, reference compound] | – | – | – | – | – | 6.40 | 6.70 |
